Consider six compounds from US20240190920A1, “BECLIN 1-TARGETED STAPLED PEPTIDE AND PHARMACEUTICAL COMPOSITION” (Shenzhen Research Institute of the Hong Kong Polytechnic …, priority 2021, published 2024).

Where two headings read alike, the source gives them in different places. Bridge positions count the residues as written; N and C are the ends. Square brackets hold non-standard residues; d marks the D form. Ends that are not written are not given here. Peptide text beside a SMILES is read from it. R8 = C=CCCCCCC[C@@](C)(N)C(=O)O; S5 = C=CCCC[C@](C)(N)C(=O)O

In one assay the test system is SKBR3 cells. The experiment in a line: Flow cytometry with Annexin V FITC-PI staining. In kind it is cell-based. The procedure: FIG. 12 is a schematic diagram of the result showing the peptides based on strategy (i7-01s) scaffold induce cell death with necrotic features. Flow cytometry analysis with Annexin V FITC-PI staining is performed in SKBR3 cells after treatment of the indicated peptides for 24 hours.
The degree of cellular apoptosis and necrosis is assessed by flow cytometry following the standard protocol provided by the manufacturer. Briefly, SKBR3 cells after the indicated peptide treatment are harvested by trypsin, labelled with Annexin V and PI (Invitrogen), subjected to flow cytometer system (BD Accuri C6), and analyzed by BD Accuri C6 software. The cell populations can be distinguished by the staining of Annexin V/PI. Typically, cellular population in the lower left quadrant is live cells (Annexin V^−, PI^−), the lower right quadrant represents early apoptotic cells (Annexin V^+, PI^−), the upper right quadrant represents late apoptotic cells (Annexin V^+, PI^+), the upper left quadrant represents necrotic cells (Annexin V^−, PI^+).

The next assay has as its system EGFR. As to the kind of experiment: EGF-induced endolysosomal degradation of EGFR, Western blot. In kind it is cell-based. Conditions: SKBR3, 2 μM, 200 ng/ml EGF. The procedure: (§1) FIG. 9 is a schematic diagram of the result showing peptides based on (I7-01s) scaffold are potent inducers of endolysosomal trafficking. (a-c) Western blot to assess the HER2 and EGFR levels in SKBR3 cells. Cells are starved overnight and are treated with 200 ng/ml EGF respectively with vehicle control (a), 2 μM Tat-SP4 (b), 2 μM i7-01s-31 (c). (d & e) Time-dependent plots to quantify HER2 and EGFR degradation profiles after three independent experiments. The levels of HER2 (d) and EGFR (e) are normalized to the β-actin level at different time points and then further normalized to time 0, when the ligand EGF is added. Data are presented as mean±SEM (n=3).
In some embodiments, the Beclin 1-targeting stapled peptide provided by the present disclosure can effectively promote endolysosomal trafficking. As a scaffolding member of the PI3KC3 complex, Beclin 1 is essential for multiple PI3KC3-dependent processes including autophagy, endolysosomal trafficking and phagocytosis. […]
Whole cell lysates are extracted using Laemmli sample buffer (62.5 mM Tris-HCl, pH 6.8, 2% SDS, 25% glycerol, 5% β-mercaptoethanol) supplemented with EDTA-free protease inhibitor cocktail (Roche). Protein concentration is determined using a standard Bradford assay before immunoblotting. […]
On the technique in general: Immunoblotting shows a protein as a band on a membrane.

For the next assay, the system named is HER2. The experiment in a line: EGF-induced endolysosomal degradation of HER2, Western blot. In kind it is cell-based. The conditions noted are these: SKBR3, 2 μM, 200 ng/ml EGF. The procedure: as §1
In some embodiments, the Beclin 1-targeting stapled peptide provided by the present disclosure can effectively promote endolysosomal trafficking. As a scaffolding member of the PI3KC3 complex, Beclin 1 is essential for multiple PI3KC3-dependent processes including autophagy, endolysosomal trafficking and phagocytosis. To assess the efficacy of the newly designed peptides on the endolysosomal trafficking process, the ligand-induced endolysosomal degradation of cell surface receptors HER2 and EGFR is characterized by western blotting using SKBR3 breast cancer cell line that over-expresses both EGFR and HER2. […] In contrast, i7-01s-31 treatment at 2 μM results in significant reduction of HER2 level, with about 50% decrease at 15 hours post EGF stimulation, and about 70% decrease at 24 hours (as shown in FIGS. 9c & 9d). i7-01s-31 treatment also strongly promotes EGFR degradation, with approximately 60% reduction at 15 hours post EGF stimulation (as shown in FIGS. 9c & 9e).
Whole cell lysates are extracted using Laemmli sample buffer (62.5 mM Tris-HCl, pH 6.8, 2% SDS, 25% glycerol, 5% β-mercaptoethanol) supplemented with EDTA-free protease inhibitor cocktail (Roche). Protein concentration is determined using a standard Bradford assay before immunoblotting. Protein samples are separated by SDS-PAGE, transferred to a PVDF membrane (Millipore, USA), and incubated with the primary antibodies and HRP-conjugated secondary antibodies. […]

For assay [1], the target named is T1, Beclin 1 coiled coil domain (Homo sapiens, UniProt Q14457).
T1 construct: the coiled coil domain of human Beclin 1 (residues 176-268); thioredoxin-6xHis fusion tag with HRV 3C protease cleavage site; made in house; host or cells: Escherichia coli BL21(DE3)
T1 sequence (Q14457 176-268): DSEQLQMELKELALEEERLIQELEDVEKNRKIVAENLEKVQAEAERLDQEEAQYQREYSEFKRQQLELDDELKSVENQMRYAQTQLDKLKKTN
As to the kind of experiment: Isothermal titration calorimetry (ITC) binding affinity. The conditions noted are these: 25° C., pH 7.4, Tat-fused peptide. The procedure:
The expression and purification of Beclin 1 coiled coil domain is performed as described previously. Briefly, the coiled coil domain of human Beclin 1 (residues 176-268) is cloned into the modified pET32a vector containing the human rhinovirus (HRV) 3C protease cleavage site and thioredoxin-6×His fusion tag. Recombinant protein for the Beclin1 coiled oil domain is expressed in Escherichia coli BL21(DE3) and purified by Ni^2+-NTA affinity chromatography (His Trap HP, GE Healthcare) first and followed by size-exclusion chromatography (Superdex 75, GE Healthcare).
ITC assays are carried out by MicroCal PEAQ-ITC Automated (Marvern) at 25° C. All designed peptides and purified protein for the Beclin 1 coiled coil domain are dialyzed into the buffer containing 50 mM Tris, 150 mM NaCl at pH 7.4. For each titration assay, the injection syringe is loaded with 40 μl of peptide and the cell is loaded with Beclin 1 coiled coil domain protein. Typically, titrations consist of 19 injections, and each injection is performed at a time interval of 180 seconds to ensure that the titration peak returns to the baseline. The titration data are analyzed using the MicroCal PEAQ-ITC Analysis software and fitted by the one-site binding model.
In general terms: Isothermal titration calorimetry measures the heat released or taken up as one component is titrated into another.

`COc1cccc2c1C(=O)c1c(O)c3c(c(O)c1C2=O)C[C@@](O)(C(=O)CO)C[C@@H]3O[C@H]1C[C@H](N)[C@H](O)[C@H](C)O1` [doxorubicin, reference compound]: the “change of Annexin V positive cells (apoptosis)” value in the assay with SKBR3 cells (SKBR3, 24 hours) is recorded as “significant increase”.
As for `CC[C@H](C)[C@H](NC(=O)[C@H](CC(C)C)NC(=O)[C@H](CCCNC(=N)N)NC(=O)[C@H](CCCNC(=N)N)NC(=O)[C@H](CCCNC(=N)N)NC(=O)[C@H](CCCNC(=N)N)NC(=O)[C@H](CCC(N)=O)NC(=O)[C@H](CCCNC(=N)N)NC(=O)[C@H](CCCNC(=N)N)NC(=O)[C@H](CCCCN)NC(=O)[C@H](CCCCN)NC(=O)[C@H](CCCNC(=N)N)NC(=O)CNC(=O)[C@H](Cc1ccc(O)cc1)NC(C)=O)C(=O)N[C@@H](CO)C(=O)N[C@@H](CCC(=O)O)C(=O)N[C@@H](CC(C)C)C(=O)N[C@]1(C)CCCCCCC=CCCC[C@@](C)(C(=O)N[C@@H](C)C(N)=O)NC(=O)[C@H](CCCNC(=N)N)NC(=O)[C@H](CCC(N)=O)NC(=O)[C@H](CCCCN)NC(=O)[C@H](CCC(=O)O)NC(=O)[C@H](CCCNC(=N)N)NC(=O)[C@H](CC(=O)O)NC1=O` [Tat-SP4, Ac-[Tat]-RLISEL(R8)DREKQR(S5)A-NH2, reference compound] (Ac-YGRKKRRQRRRRLISEL[R8]DREKQR[S5]A-NH2; staple 18-25), the PI positive cells result in the assay on SKBR3 cells (SKBR3, 10 μM, 24 hours) was “approximately 8%”. For the same compound, in the assay with SKBR3 cells (SKBR3, 24 hours), the “change of Annexin V positive cells (apoptosis)” value is “no increase” and the “change of PI positive staining cells (dead cells)” value is recorded as “significant increase”. Further, in the assay with EGFR, the EGFR degradation profile result is “does not show any noticeable impact”. Besides, the HER2 degradation profile result with HER2 was “does not show any noticeable impact”.
The Kd is a measure of binding affinity in units of concentration. With “Ace-RFIQR8LEVVIKS5RSV-Nme (Ac-RFIQ[R8]LEVVIK[S5]RSV; staple 5-12; not fully specified (C-terminus); printed as Ace-RFIQR8LEVVIKS5RSV-Nme) [i7-01s-34]”, in assay [1], the Kd entry is “No binding”.
On to “Ace-RLLQR8LKTVLKS5RSV-Nme (Ac-RLLQ[R8]LKTVLK[S5]RSV; staple 5-12; not fully specified (C-terminus); printed as Ace-RLLQR8LKTVLKS5RSV-Nme) [i7-01s-30]”, for which the Kd entry in assay [1] was “No binding”.
For `CC[C@H](C)[C@H](NC(=O)[C@H](CC(C)C)NC(=O)[C@H](C)NC(=O)[C@H](CCCNC(=N)N)NC(=O)[C@H](CCCNC(=N)N)NC(=O)[C@H](CCCNC(=N)N)NC(=O)[C@H](CCC(N)=O)NC(=O)[C@H](CCCNC(=N)N)NC(=O)[C@H](CCCNC(=N)N)NC(=O)[C@H](CCCCN)NC(=O)[C@H](CCCCN)NC(=O)[C@H](CCCNC(=N)N)NC(=O)CNC(=O)[C@H](Cc1ccc(O)cc1)NC(C)=O)C(=O)N[C@@H](CCC(N)=O)C(=O)N[C@]1(C)CCCCCCC=CCCC[C@@](C)(C(=O)N[C@@H](CCCNC(=N)N)C(=O)N[C@@H](CCCCN)C(=O)N[C@@H](CCCNC(=N)N)C(N)=O)NC(=O)[C@H](CCCCN)NC(=O)[C@H](CCC(=O)O)NC(=O)[C@H](C(C)C)NC(=O)[C@H](CC(=O)O)NC(=O)[C@H](CCC(=O)O)NC(=O)[C@H](CCC(N)=O)NC1=O` [i7-01s-54, Ace-ALIQR8QEDVEKS5RKR-Nme] (Ac-YGRKKRRQRRRALIQ[R8]QEDVEK[S5]RKR-NH2; staple 16-23), in assay [1] (read-out: Kd), the Kd amounted to 311 ± 54.6 µM.
For the compound “Ace-RLIQR8REDVEKS5RKR-Nme (Ac-RLIQ[R8]REDVEK[S5]RKR; staple 5-12; not fully specified (C-terminus); printed as Ace-RLIQR8REDVEKS5RKR-Nme) [i7-01s-36]”, the Kd entry in assay [1] is reported as “No binding”.
